How the values were obtained:
[1] = molecular target: EGFR (ErbB1) (Homo sapiens (Human), UniProt P00533); assay: SelectScreen Kinase Profiling: EGFR (ErbB1); type: biochemical; settings: tested at 300-350 nM
Description: (§1) Table 4 below highlights the selectivity of a representative compound of the invention, Example 5, against a panel of 50 kinases (assessed using the Invitrogen SelectScreen® Kinase Profiling Service).

[2] = molecular target: LCK (Homo sapiens (Human), UniProt P06239); assay: SelectScreen Kinase Profiling: LCK; type: biochemical; settings: tested at 300-350 nM
[3] = molecular target: MAPK8 (JNK1) (Homo sapiens (Human), UniProt P45983); assay: SelectScreen Kinase Profiling: MAPK8 (JNK1); type: biochemical; settings: tested at 300-350 nM
Chain of MAPK8 (JNK1) (P45983 whole entry): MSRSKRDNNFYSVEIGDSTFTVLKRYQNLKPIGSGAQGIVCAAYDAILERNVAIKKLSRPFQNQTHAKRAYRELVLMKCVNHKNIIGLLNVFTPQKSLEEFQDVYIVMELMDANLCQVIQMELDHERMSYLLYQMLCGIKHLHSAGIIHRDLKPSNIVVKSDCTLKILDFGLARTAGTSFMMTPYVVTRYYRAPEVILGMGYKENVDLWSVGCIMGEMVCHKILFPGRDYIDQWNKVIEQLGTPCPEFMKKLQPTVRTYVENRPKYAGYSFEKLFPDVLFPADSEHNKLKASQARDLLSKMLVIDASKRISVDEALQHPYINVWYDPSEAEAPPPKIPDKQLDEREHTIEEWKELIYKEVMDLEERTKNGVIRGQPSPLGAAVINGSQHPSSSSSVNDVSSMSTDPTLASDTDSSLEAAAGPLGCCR
Description: as §1

[4] = test system: panel of 50 kinases; assay: Invitrogen SelectScreen Kinase Profiling Service, selectivity over the panel; type: biochemical; settings: compared with compounds of the prior art
Description: as §1

[5] = molecular target: SRC (Homo sapiens (Human), UniProt P12931); assay: SelectScreen Kinase Profiling: SRC; type: biochemical; settings: tested at 300-350 nM
Description: as §1

[6] = molecular target: FLT3 (Homo sapiens (Human), UniProt P36888); assay: SelectScreen Kinase Profiling: FLT3; type: biochemical; settings: tested at 300-350 nM
Description: as §1

[7] = molecular target: TEK (Tie2) (Homo sapiens (Human), UniProt Q02763); assay: SelectScreen Kinase Profiling: TEK (Tie2); type: biochemical; settings: tested at 300-350 nM
Description: as §1

[8] = molecular target: AMPK A1/B1/G1 (Homo sapiens (Human), UniProt Q13131); assay: SelectScreen Kinase Profiling: AMPK A1/B1/G1; type: biochemical; settings: tested at 300-350 nM
Description: as §1

[9] = molecular target: DYRK3 (Homo sapiens (Human), UniProt O43781); assay: SelectScreen Kinase Profiling: DYRK3; type: biochemical; settings: tested at 300-350 nM
Chain of DYRK3 (O43781 whole entry): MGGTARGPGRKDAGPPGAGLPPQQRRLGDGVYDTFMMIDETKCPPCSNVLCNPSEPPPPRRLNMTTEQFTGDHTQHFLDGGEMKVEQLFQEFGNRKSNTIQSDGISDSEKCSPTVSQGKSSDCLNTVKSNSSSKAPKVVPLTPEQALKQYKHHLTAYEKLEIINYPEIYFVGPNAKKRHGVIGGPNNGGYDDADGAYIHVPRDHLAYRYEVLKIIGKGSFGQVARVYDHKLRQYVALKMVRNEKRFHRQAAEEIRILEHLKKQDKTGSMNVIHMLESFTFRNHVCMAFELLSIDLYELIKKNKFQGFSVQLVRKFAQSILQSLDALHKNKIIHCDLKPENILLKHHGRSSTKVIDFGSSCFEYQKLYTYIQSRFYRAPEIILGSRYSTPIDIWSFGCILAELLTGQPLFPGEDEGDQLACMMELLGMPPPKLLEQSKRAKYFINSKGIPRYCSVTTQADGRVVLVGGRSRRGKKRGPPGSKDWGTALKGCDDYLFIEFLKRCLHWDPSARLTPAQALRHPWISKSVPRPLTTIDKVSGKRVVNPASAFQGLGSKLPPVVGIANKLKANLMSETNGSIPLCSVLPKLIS
Description: as §1

[10] = molecular target: PDGFRB (PDGFR beta) (Homo sapiens (Human), UniProt P09619); assay: SelectScreen Kinase Profiling: PDGFRB (PDGFR beta); type: biochemical; settings: tested at 300-350 nM
Description: as §1

[11] = molecular target: INSR (Homo sapiens (Human), UniProt P06213); assay: SelectScreen Kinase Profiling: INSR; type: biochemical; settings: tested at 300-350 nM
Description: as §1

[12] = molecular target: EPHA2 (Homo sapiens (Human), UniProt P29317); assay: SelectScreen Kinase Profiling: EPHA2; type: biochemical; settings: tested at 300-350 nM
Description: as §1

[13] = test system: A498 cells; assay: Cell viability (CellTiter-Glo), A498; type: cell-based; settings: Homo sapiens, A498, 144 h; cell viability after 6 days
Experimental: (§2) All cell lines (HT29, A427, A498, SKLU-1) were obtained from the American Type Culture Collection (ATCC), maintained in the recommended media supplemented with 10% (v/v) FBS, 1% (v/v) Penicillin/streptomycin and kept at 37° C. in a humidified atmosphere with 5% CO2. Cells were seeded in 96 wp format typically at a seeding density of 3500-5000 cells/well and treated after 24 hours with increasing concentration of compound from 0 to 100 μM in ½ log unit increments. Cell viability was assessed after 72 hours (HT29, A427) or after 6 days (SKLU-1, A498) by CellTiter-Glo® as recommended by the manufacturer's instructions (Promega). Analysis and EC50 values were derived using GraphPadPrism.

[14] = molecular target: FGFR1 (Homo sapiens (Human), UniProt P11362); assay: SelectScreen Kinase Profiling: FGFR1; type: biochemical; settings: tested at 300-350 nM
Description: as §1

[15] = molecular target: CDK1/cyclin B (Homo sapiens (Human), UniProt P06493); assay: SelectScreen Kinase Profiling: CDK1/cyclin B; type: biochemical; settings: tested at 300-350 nM
Chain of CDK1/cyclin B (P06493 whole entry): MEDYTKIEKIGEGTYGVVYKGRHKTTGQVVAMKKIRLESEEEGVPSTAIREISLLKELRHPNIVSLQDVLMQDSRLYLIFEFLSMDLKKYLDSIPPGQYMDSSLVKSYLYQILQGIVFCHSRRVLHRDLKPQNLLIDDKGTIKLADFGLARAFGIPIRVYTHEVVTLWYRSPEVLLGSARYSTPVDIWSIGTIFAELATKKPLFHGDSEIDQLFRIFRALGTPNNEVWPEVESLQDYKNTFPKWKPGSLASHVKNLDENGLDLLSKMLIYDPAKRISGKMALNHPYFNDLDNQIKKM
Chain of CDK1/cyclin B (P14635 whole entry partner): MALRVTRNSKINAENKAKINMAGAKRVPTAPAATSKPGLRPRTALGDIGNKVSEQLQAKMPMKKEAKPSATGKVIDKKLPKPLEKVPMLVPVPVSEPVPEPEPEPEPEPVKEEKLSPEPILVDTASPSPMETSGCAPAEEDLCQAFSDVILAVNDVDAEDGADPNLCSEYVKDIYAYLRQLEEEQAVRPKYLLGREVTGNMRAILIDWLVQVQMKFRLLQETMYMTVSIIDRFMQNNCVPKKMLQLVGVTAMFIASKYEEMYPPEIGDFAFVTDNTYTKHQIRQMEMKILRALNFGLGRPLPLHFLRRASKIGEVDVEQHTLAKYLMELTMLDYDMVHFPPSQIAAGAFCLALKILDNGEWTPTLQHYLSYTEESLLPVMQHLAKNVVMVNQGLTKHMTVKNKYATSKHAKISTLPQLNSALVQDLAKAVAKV
Description: as §1

[16] = molecular target: MARK2 (Homo sapiens (Human), UniProt Q7KZI7); assay: SelectScreen Kinase Profiling: MARK2; type: biochemical; settings: tested at 300-350 nM
Description: as §1

[17] = molecular target: PRKACA (PKA) (Homo sapiens (Human), UniProt P17612); assay: SelectScreen Kinase Profiling: PRKACA (PKA); type: biochemical; settings: tested at 300-350 nM
Description: as §1

[18] = molecular target: KDR (VEGFR2) (Homo sapiens (Human), UniProt P35968); assay: SelectScreen Kinase Profiling: KDR (VEGFR2); type: biochemical; settings: tested at 300-350 nM
Description: as §1

[19] = molecular target: NEK1 (Homo sapiens (Human), UniProt Q96PY6); assay: SelectScreen Kinase Profiling: NEK1; type: biochemical; settings: tested at 300-350 nM
Chain of NEK1 (Q96PY6 whole entry): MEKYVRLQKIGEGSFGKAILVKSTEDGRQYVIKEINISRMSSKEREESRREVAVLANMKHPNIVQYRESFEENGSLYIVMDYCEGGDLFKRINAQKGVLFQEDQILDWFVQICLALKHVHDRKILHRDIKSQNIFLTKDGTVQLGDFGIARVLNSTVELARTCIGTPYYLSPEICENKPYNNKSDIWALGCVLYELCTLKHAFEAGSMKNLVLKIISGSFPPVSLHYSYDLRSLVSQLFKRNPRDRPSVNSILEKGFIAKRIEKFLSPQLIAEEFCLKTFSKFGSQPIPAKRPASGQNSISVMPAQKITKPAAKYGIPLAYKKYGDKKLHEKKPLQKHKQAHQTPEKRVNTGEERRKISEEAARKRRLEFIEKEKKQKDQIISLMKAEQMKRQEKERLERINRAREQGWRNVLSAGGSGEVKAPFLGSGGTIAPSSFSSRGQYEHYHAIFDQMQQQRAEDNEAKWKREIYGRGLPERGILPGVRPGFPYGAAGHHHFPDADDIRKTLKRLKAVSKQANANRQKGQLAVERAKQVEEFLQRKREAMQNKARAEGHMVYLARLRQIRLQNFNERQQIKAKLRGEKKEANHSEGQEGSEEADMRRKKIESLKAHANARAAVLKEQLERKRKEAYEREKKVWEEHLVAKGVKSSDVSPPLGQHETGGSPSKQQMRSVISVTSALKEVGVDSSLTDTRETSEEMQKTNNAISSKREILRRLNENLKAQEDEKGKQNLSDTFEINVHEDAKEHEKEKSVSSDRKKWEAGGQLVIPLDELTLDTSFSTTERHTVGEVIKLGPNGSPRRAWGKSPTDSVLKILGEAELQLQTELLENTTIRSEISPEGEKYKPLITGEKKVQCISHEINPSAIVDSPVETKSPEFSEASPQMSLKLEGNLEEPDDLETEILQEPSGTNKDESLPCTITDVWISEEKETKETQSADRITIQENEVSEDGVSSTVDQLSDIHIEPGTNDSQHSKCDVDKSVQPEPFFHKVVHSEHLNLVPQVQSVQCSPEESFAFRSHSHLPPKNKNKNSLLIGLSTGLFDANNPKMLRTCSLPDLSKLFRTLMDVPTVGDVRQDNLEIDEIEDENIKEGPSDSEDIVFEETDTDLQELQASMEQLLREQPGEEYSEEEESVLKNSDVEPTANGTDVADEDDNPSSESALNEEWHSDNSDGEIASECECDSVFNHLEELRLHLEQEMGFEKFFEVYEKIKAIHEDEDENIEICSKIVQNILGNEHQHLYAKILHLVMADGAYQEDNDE
Description: as §1

[20] = molecular target: MAPK1 (ERK2) (Homo sapiens (Human), UniProt P28482); assay: SelectScreen Kinase Profiling: MAPK1 (ERK2); type: biochemical; settings: tested at 300-350 nM
Description: as §1

[21] = molecular target: MAP4K4 (HGK) (Homo sapiens (Human), UniProt O95819); assay: SelectScreen Kinase Profiling: MAP4K4 (HGK); type: biochemical; settings: tested at 300-350 nM
Description: as §1

[22] = molecular target: MAPKAPK2 (Homo sapiens (Human), UniProt P49137); assay: SelectScreen Kinase Profiling: MAPKAPK2; type: biochemical; settings: tested at 300-350 nM
Chain of MAPKAPK2 (P49137 whole entry): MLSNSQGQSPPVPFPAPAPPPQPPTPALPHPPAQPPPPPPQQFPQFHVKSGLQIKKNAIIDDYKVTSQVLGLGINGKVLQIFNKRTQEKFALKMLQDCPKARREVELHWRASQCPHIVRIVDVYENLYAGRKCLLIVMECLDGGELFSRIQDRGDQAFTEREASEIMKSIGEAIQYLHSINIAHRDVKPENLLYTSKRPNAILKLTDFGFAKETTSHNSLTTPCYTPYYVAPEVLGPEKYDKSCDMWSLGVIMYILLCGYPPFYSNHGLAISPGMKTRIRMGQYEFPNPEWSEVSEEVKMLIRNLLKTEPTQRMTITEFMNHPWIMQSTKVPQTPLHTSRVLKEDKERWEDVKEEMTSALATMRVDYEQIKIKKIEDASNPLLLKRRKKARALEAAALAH
Description: as §1

[23] = molecular target: FRAP1 (mTOR) (Homo sapiens (Human), UniProt P42345); assay: SelectScreen Kinase Profiling: FRAP1 (mTOR); type: biochemical; settings: tested at 300-350 nM
Description: as §1

[24] = molecular target: ABL1 (Homo sapiens (Human), UniProt P00519); assay: SelectScreen Kinase Profiling: ABL1; type: biochemical; settings: tested at 300-350 nM
Description: as §1

[25] = molecular target: JAK3 (Homo sapiens (Human), UniProt P52333); assay: SelectScreen Kinase Profiling: JAK3; type: biochemical; settings: tested at 300-350 nM
Description: as §1

[26] = molecular target: IGF1R (Homo sapiens (Human), UniProt P08069); assay: SelectScreen Kinase Profiling: IGF1R; type: biochemical; settings: tested at 300-350 nM
Chain of IGF1R (P08069 31-1367): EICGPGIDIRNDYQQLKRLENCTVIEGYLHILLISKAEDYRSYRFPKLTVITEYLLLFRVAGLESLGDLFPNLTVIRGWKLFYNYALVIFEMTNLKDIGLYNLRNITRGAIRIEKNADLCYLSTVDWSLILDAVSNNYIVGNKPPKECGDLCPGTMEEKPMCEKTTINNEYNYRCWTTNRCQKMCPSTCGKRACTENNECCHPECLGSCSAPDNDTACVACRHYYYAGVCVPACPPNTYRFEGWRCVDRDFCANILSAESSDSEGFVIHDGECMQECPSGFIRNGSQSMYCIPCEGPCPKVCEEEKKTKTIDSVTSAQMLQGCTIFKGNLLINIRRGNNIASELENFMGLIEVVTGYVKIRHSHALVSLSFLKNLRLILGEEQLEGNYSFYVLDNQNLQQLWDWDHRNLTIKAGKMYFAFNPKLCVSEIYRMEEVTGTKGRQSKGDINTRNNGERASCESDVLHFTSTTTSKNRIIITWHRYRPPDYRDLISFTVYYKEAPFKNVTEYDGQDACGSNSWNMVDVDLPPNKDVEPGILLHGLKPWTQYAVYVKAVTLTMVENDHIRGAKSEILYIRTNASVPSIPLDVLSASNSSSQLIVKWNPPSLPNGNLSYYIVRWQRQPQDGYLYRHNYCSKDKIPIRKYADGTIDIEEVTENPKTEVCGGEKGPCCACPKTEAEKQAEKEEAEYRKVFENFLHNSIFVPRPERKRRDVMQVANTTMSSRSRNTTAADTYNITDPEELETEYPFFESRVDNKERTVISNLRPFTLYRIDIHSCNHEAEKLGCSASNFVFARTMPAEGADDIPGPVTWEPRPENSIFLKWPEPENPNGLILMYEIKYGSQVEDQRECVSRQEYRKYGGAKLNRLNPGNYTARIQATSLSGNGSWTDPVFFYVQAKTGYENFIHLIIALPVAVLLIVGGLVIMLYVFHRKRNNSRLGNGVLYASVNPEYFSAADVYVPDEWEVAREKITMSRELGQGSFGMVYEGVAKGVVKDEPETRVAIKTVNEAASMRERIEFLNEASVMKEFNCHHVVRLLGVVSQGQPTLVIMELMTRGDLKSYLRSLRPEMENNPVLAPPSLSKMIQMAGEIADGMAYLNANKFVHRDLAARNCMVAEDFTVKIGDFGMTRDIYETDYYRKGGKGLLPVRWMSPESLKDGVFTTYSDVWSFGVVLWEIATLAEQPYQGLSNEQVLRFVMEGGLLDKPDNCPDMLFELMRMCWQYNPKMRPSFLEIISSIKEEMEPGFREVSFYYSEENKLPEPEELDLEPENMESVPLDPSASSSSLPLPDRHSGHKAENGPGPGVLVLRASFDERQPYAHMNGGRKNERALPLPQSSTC
Description: as §1

[27] = molecular target: NTRK1 (TRKA) (Homo sapiens (Human), UniProt P04629); assay: SelectScreen Kinase Profiling: NTRK1 (TRKA); type: biochemical; settings: tested at 300-350 nM
Description: as §1

[28] = molecular target: MAPK14 (p38 alpha) (Homo sapiens (Human), UniProt Q16539); assay: SelectScreen Kinase Profiling: MAPK14 (p38 alpha); type: biochemical; settings: tested at 300-350 nM
Description: as §1

[29] = molecular target: MAP2K1 (MEK1) (Homo sapiens (Human), UniProt Q02750); assay: SelectScreen Kinase Profiling: MAP2K1 (MEK1); type: biochemical; settings: tested at 300-350 nM
Description: as §1

[30] = molecular target: ERBB2 (HER2) (Homo sapiens (Human), UniProt P04626); assay: SelectScreen Kinase Profiling: ERBB2 (HER2); type: biochemical; settings: tested at 300-350 nM
Description: as §1

[31] = molecular target: AKT1 (PKB alpha) (Homo sapiens (Human), UniProt P31749); assay: SelectScreen Kinase Profiling: AKT1 (PKB alpha); type: biochemical; settings: tested at 300-350 nM
Description: as §1

[32] = molecular target: MET (cMet) (Homo sapiens (Human), UniProt P08581); assay: SelectScreen Kinase Profiling: MET (cMet); type: biochemical; settings: tested at 300-350 nM
Description: as §1

[33] = molecular target: CSNK2A1 (CK2 alpha 1) (Homo sapiens (Human), UniProt P68400); assay: SelectScreen Kinase Profiling: CSNK2A1 (CK2 alpha 1); type: biochemical; settings: tested at 300-350 nM
Description: as §1

[34] = molecular target: RPS6KA3 (RSK2) (Homo sapiens (Human), UniProt P51812); assay: SelectScreen Kinase Profiling: RPS6KA3 (RSK2); type: biochemical; settings: tested at 300-350 nM
Description: as §1

[35] = test system: HT29 cells; assay: Cell viability (CellTiter-Glo), HT29; type: cell-based; settings: Homo sapiens, HT-29; cell viability after 72 hours
Experimental: as §2

SMILES: C=CCn1c(=O)c2cnc(Nc3ccc(N4CCN(C)CC4)cc3)nc2n1-c1cccc(N=S(C)(C)=O)n1 [Example 5, 1-(6-{[Dimethyl(oxo)-λ^6-sulfanylidene]amino}pyridine-2-yl)-6-{[4-(4-methylpiperazin-1-yl)phenyl]amino}-2-(prop-2-en-1-yl)-1H,2H,3H-pyrazolo[3,4-d]pyrimidin-3-one]
- inhibition of EGFR (ErbB1) [1]: − (inhibition under 50% (tested at 300-350 nM))
- inhibition of LCK [2]: − (inhibition under 50% (tested at 300-350 nM))
- inhibition of MAPK8 (JNK1) [3]: − (inhibition under 50% (tested at 300-350 nM))
- selectivity against a panel of 50 kinases [4]: greater selectivity
- inhibition of SRC [5]: − (inhibition under 50% (tested at 300-350 nM))
- inhibition of FLT3 [6]: − (inhibition under 50% (tested at 300-350 nM))
- inhibition of TEK (Tie2) [7]: − (inhibition under 50% (tested at 300-350 nM))
- inhibition of AMPK A1/B1/G1 [8]: − (inhibition under 50% (tested at 300-350 nM))
- inhibition of DYRK3 [9]: − (inhibition under 50% (tested at 300-350 nM))
- inhibition of PDGFRB (PDGFR beta) [10]: − (inhibition under 50% (tested at 300-350 nM))
- inhibition of INSR [11]: − (inhibition under 50% (tested at 300-350 nM))
- inhibition of EPHA2 [12]: − (inhibition under 50% (tested at 300-350 nM))
- EC50 [13]: 25 nM
- inhibition of FGFR1 [14]: − (inhibition under 50% (tested at 300-350 nM))
- inhibition of CDK1/cyclin B [15]: − (inhibition under 50% (tested at 300-350 nM))
- inhibition of MARK2 [16]: − (inhibition under 50% (tested at 300-350 nM))
- inhibition of PRKACA (PKA) [17]: − (inhibition under 50% (tested at 300-350 nM))
- inhibition of KDR (VEGFR2) [18]: − (inhibition under 50% (tested at 300-350 nM))
- inhibition of NEK1 [19]: − (inhibition under 50% (tested at 300-350 nM))
- inhibition of MAPK1 (ERK2) [20]: − (inhibition under 50% (tested at 300-350 nM))
- inhibition of MAP4K4 (HGK) [21]: − (inhibition under 50% (tested at 300-350 nM))
- inhibition of MAPKAPK2 [22]: − (inhibition under 50% (tested at 300-350 nM))
- inhibition of FRAP1 (mTOR) [23]: − (inhibition under 50% (tested at 300-350 nM))
- inhibition of ABL1 [24]: − (inhibition under 50% (tested at 300-350 nM))
- inhibition of JAK3 [25]: − (inhibition under 50% (tested at 300-350 nM))
- inhibition of IGF1R [26]: − (inhibition under 50% (tested at 300-350 nM))
- inhibition of NTRK1 (TRKA) [27]: − (inhibition under 50% (tested at 300-350 nM))
- inhibition of MAPK14 (p38 alpha) [28]: − (inhibition under 50% (tested at 300-350 nM))
- inhibition of MAP2K1 (MEK1) [29]: − (inhibition under 50% (tested at 300-350 nM))
- inhibition of ERBB2 (HER2) [30]: − (inhibition under 50% (tested at 300-350 nM))
- inhibition of AKT1 (PKB alpha) [31]: − (inhibition under 50% (tested at 300-350 nM))
- inhibition of MET (cMet) [32]: − (inhibition under 50% (tested at 300-350 nM))
- inhibition of CSNK2A1 (CK2 alpha 1) [33]: − (inhibition under 50% (tested at 300-350 nM))
- inhibition of RPS6KA3 (RSK2) [34]: − (inhibition under 50% (tested at 300-350 nM))
- EC50 [35]: 33 nM

Source: patent US10766902B2, “Wee-1 inhibiting pyrazolopyrimidinone compounds” (ALMAC DISCOVERY LIMITED, priority 2016, dated 2020)
